# Measured values taken from ChEMBL document CHEMBL1132916, “Total synthesis of pyrrolizidines 223H', 239K', 265H', and 267H' found in Madagascan frogs (Mantella) and their affinities for nicotinic acetylcholine receptor” (Bioorg Med Chem Lett, 2000).
# Target: Acetylcholine receptor (Torpedo californica, UniProt P02710+P02712+P02714+P02718)
# Assay: Compound was evaluated for inhibition of [3H]TCP binding to Nicotinic acetylcholine receptor of Torpedo californica
# Type: protein-complex assay, Tetronarce californica
# Acetylcholine receptor, sequence (P02710 whole entry): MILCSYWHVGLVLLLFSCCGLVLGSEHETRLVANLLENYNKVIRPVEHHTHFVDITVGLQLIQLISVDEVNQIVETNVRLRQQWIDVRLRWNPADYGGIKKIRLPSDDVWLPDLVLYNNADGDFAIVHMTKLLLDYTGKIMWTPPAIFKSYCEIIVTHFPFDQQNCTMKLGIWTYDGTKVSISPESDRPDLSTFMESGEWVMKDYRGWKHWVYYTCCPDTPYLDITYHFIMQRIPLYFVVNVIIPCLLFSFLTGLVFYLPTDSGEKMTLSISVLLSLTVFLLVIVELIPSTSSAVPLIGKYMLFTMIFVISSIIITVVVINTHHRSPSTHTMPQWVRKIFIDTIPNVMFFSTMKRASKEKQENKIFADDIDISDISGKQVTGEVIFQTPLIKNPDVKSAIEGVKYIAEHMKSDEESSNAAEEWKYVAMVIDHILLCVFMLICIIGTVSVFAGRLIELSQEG
# Acetylcholine receptor, sequence (P02712 whole entry): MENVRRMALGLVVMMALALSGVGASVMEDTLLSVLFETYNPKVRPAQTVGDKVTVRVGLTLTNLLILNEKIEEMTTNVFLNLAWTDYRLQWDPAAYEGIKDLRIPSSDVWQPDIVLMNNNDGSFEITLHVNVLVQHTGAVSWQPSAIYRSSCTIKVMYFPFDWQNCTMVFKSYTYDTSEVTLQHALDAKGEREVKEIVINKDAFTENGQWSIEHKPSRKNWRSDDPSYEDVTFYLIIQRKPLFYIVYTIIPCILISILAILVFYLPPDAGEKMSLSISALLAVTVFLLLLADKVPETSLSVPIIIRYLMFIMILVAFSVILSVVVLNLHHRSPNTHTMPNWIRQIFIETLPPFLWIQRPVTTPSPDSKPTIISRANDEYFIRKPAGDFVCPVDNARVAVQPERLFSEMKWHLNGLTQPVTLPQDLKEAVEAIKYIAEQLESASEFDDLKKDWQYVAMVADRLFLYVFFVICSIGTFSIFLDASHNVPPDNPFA
# Acetylcholine receptor, sequence (P02718 whole entry): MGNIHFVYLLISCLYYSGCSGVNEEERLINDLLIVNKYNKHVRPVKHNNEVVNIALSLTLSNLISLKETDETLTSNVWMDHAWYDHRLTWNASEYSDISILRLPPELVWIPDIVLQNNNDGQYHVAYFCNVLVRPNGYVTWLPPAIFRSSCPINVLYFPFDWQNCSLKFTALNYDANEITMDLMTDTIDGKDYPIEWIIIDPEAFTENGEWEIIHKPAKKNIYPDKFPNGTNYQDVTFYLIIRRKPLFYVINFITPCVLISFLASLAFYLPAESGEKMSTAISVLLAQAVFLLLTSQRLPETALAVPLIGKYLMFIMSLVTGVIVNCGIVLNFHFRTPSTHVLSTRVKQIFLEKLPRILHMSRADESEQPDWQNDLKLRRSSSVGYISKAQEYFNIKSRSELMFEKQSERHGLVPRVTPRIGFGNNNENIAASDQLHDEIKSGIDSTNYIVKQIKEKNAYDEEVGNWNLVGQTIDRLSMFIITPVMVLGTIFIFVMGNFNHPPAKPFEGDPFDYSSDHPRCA
# Acetylcholine receptor, sequence (P02714 whole entry): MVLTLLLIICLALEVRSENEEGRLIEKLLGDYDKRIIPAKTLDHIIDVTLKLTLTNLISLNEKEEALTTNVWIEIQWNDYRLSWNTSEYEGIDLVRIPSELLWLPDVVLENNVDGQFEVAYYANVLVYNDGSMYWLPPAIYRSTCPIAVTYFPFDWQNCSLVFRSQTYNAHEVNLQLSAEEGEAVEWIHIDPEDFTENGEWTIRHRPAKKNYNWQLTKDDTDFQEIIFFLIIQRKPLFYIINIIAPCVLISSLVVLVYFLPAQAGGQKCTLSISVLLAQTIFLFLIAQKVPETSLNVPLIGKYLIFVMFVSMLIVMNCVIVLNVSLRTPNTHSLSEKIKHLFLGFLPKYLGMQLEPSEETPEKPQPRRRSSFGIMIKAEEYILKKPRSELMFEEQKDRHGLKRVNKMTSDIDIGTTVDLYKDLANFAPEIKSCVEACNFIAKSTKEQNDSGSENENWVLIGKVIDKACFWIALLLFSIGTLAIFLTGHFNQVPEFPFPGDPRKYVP
row,SMILES,Ki
1,CCCCCCC[C@@H]1CC[C@H]2CC[C@H](C)N12,50 µM
2,C[C@H](O)CCCCC[C@@H]1CC[C@H]2CC[C@H](C)N12,3300 µM
3,CCCC[C@@H]1CCCC2CC[C@@H](CCCC)N21 (stereo partly drawn),420 µM
4,C[C@@H](O)CCCCC[C@@H]1CC[C@H]2CC[C@H](C)N12,8300 µM
5,CCC[C@H]1CC[C@@H]2CC[C@@H](CCCCC[C@@H](C)O)N21,3100 µM
6,CCCC[C@H]1CCCC2CC[C@@H](CCCC)N21 (stereo partly drawn),370 µM
7,CCC[C@H]1CC[C@@H]2CC[C@@H](CCCCC[C@H](C)O)N21,3100 µM
8,CCC[C@H]1CC[C@@H]2CC[C@@H](CCCCCC(C)=O)N21,830 µM
